Results: PubChem BioAssay AID1963867 (Molecular Pharmacology Branch, DTP, NCI, 2024)

System: KRAS-mutant PDC tumor spheroid with HUVEC/MSC, viability
Assay: Anticancer human tumor 327498-153-R-J2-PDC patient-derived uterine carcinosarcoma cell line growth inhibition [KRAS2]
Conditions: for IC50: curve of first compound; for viability, T/C: stronger effect = lower value
Method in brief: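 KRAS-mutant tumor cells were grown as spheroids with HUVEC endothelial cells and human MSCs as stroma. Targeted agents were tested alone and with KRAS pathway inhibitors. Doses started at or near clinical Cmax, or 10 microM, descending half-log.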

[1] = second compound 0.1 µM, first compound 0.0316 µM
[2] = second compound 0.1 µM, first compound 0.1 µM
[3] = second compound 0.1 µM, first compound 0.316 µM
[4] = second compound 0.1 µM, first compound 1 µM
[5] = second compound 0.1 µM, first compound 3.16 µM
[6] = second compound 0.1 µM, first compound 10 µM
[7] = second compound 0.316 µM, first compound 0.0316 µM
[8] = second compound 0.316 µM, first compound 0.1 µM
[9] = second compound 0.316 µM, first compound 0.316 µM
[10] = second compound 0.316 µM, first compound 1 µM
[11] = second compound 0.316 µM, first compound 3.16 µM
[12] = second compound 0.316 µM, first compound 10 µM
[13] = second compound 1 µM, first compound 0.0316 µM
[14] = second compound 1 µM, first compound 0.1 µM
[15] = second compound 1 µM, first compound 0.316 µM
[16] = second compound 1 µM, first compound 1 µM
[17] = second compound 1 µM, first compound 3.16 µM
[18] = second compound 1 µM, first compound 10 µM
[19] = second compound 3.16 µM, first compound 0.0316 µM
[20] = second compound 3.16 µM, first compound 0.1 µM
[21] = second compound 3.16 µM, first compound 0.316 µM
[22] = second compound 3.16 µM, first compound 1 µM
[23] = second compound 3.16 µM, first compound 3.16 µM
[24] = second compound 3.16 µM, first compound 10 µM
[25] = second compound 10 µM, first compound 0.0316 µM
[26] = second compound 10 µM, first compound 0.1 µM
[27] = second compound 10 µM, first compound 0.316 µM
[28] = second compound 10 µM, first compound 1 µM
[29] = second compound 10 µM, first compound 3.16 µM
[30] = second compound 10 µM, first compound 10 µM
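Note: spheroids exposed to agents for seven days before reading.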
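Throughout, for viability, T/C: 100% = DMSO vehicle wells so lower means fewer viable cells.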

| Structure (SMILES) | IC50 (second compound 0.1 µM) [nM] | IC50 (second compound 0.316 µM) [nM] | IC50 (second compound 1 µM) [nM] | IC50 (second compound 3.16 µM) [nM] | IC50 (second compound 10 µM) [nM] | viability, T/C [1] [%] | viability, T/C [2] [%] | viability, T/C [3] [%] | viability, T/C [4] [%] | viability, T/C [5] [%] | viability, T/C [6] [%] | viability, T/C [7] [%] | viability, T/C [8] [%] | viability, T/C [9] [%] | viability, T/C [10] [%] | viability, T/C [11] [%] | viability, T/C [12] [%] | viability, T/C [13] [%] | viability, T/C [14] [%] | viability, T/C [15] [%] | also measured |
| --- | --- | --- | --- | --- | --- | --- | --- | --- | --- | --- | --- | --- | --- | --- | --- | --- | --- | --- | --- | --- | --- |
| CC1OCC2(CCN(c3cnc(Sc4ccnc(N)c4Cl)c(N)n3)CC2)C1N (stereo not given) + COc1cc2nc(C)nc(NC(C)c3cc(N)cc(C(F)(F)F)c3)c2cc1OC1CCOC1 | 129 | 85.5 | 99.3 | 64.8 | < 31.6 | 72.8 | 46.9 | 44.7 | 34.4 | 29.3 | 23.6 | 61.6 | 47.5 | 39.8 | 32.3 | 29.6 | 27.8 | 61.6 | 50.2 | 39.6 | viability, T/C [16]: 32.8%; viability, T/C [17]: 27.8%; viability, T/C [18]: 22.7%; viability, T/C [19]: 58%; viability, T/C [20]: 43.3%; viability, T/C [21]: 39.6%; viability, T/C [22]: 28.7%; viability, T/C [23]: 23.5%; viability, T/C [24]: 23.7%; viability, T/C [25]: 49.5%; viability, T/C [26]: 37.5%; viability, T/C [27]: 31.2%; viability, T/C [28]: 25.2%; viability, T/C [29]: 25.3%; viability, T/C [30]: 16.2% |
| Cn1nccc1Nc1nccc(-c2cc3c(s2)C(C)(C)N(CCN2CCOCC2)C3=O)n1 + COc1cc2nc(C)nc(NC(C)c3cc(N)cc(C(F)(F)F)c3)c2cc1OC1CCOC1 | 851 | 560 | 826 | 531 | 47.2 | 72.8 | 73.2 | 57.6 | 46.1 | 44 | 31.9 | 82.8 | 67 | 52.5 | 47 | 37.9 | 31.6 | 67.8 | 65.9 | 53.7 | viability, T/C [16]: 49.4%; viability, T/C [17]: 41.1%; viability, T/C [18]: 33%; viability, T/C [19]: 64.4%; viability, T/C [20]: 57%; viability, T/C [21]: 55.2%; viability, T/C [22]: 45%; viability, T/C [23]: 41.7%; viability, T/C [24]: 36.6%; viability, T/C [25]: 52.7%; viability, T/C [26]: 46.4%; viability, T/C [27]: 44.1%; viability, T/C [28]: 43.8%; viability, T/C [29]: 34.7%; viability, T/C [30]: 25.4% |
